Experimental findings from patent US7329510B2, “Full length human HCN1Ih channel subunit and variants” (N.V. Organon, priority 2000, dated 2008) are described below.

The target in the test is T1, human HCN1 channel (Homo sapiens, UniProt O60741, S680F).
T1 construct: Effect of ZD 7288 (100 micromolar) on hHCN1 (full-length) currents; expressed in transfected cells; host or cells: HEK 293F
T1 sequence (O60741 1-890 S680F): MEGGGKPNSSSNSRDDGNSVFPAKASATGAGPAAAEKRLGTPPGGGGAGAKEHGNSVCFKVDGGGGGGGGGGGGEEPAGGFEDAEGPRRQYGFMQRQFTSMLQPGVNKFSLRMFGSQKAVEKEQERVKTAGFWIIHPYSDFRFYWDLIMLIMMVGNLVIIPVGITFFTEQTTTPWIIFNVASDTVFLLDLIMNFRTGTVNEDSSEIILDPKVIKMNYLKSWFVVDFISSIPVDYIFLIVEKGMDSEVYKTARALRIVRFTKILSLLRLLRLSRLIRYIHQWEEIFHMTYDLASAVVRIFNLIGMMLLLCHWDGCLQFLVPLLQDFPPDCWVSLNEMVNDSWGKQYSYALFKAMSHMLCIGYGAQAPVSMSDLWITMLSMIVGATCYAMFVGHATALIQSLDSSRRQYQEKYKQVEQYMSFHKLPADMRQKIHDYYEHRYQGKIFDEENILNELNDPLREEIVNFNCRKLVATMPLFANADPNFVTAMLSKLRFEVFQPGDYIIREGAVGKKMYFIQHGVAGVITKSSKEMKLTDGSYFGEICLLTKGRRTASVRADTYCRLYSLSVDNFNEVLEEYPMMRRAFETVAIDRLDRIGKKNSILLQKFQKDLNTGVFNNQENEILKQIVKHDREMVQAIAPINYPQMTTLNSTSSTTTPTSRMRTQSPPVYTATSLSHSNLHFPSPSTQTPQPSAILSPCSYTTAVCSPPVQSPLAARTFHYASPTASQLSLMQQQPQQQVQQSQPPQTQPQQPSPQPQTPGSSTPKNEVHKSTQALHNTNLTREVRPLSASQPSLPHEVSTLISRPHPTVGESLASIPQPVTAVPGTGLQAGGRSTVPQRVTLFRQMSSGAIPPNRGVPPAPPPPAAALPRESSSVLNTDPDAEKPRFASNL
Briefly: Whole-cell patch-clamp functional assay for human HCN1 channel currents. The class given is cell-based. The conditions noted are these: HEK293 cells expressing human HCN1, step to -120 mV from holding -40 mV. Here is the method:
Human HCN1 channel currents were detected under voltage-clamp using the whole-cell configuration of the patch-clamp technique. Appropriate cells (HEK293) expressing human HCN1 channel subunits were placed in a recording chamber containing extracellular solution (Sodium chloride 135 mM; Potassium chloride 5 mM; Calcium chloride 1.8 mM; Magnesium chloride 0.5 mM; HEPES 5 mM) at a temperature of 20-25 degrees centigrade. In some experiments the extracellular solution contained 30 mM Potassium chloride, in which cases the Sodium chloride concentration was reduced to 110 mM. […] The membrane current was recorded throughout the experiment. […] The membrane current was measured just after (1-10 milliseconds) the start of the hyperpolarising step and just before (10-100 milliseconds) its end. […] For each cell, the current amplitude was determined first in normal extracellular solution and then in extracellular solution containing caesium chloride (FIG. 3) or ZD 7288 (FIGS. 4 and 7). Alternatively, the effect of caesium chloride (5 mM) on human HCN1 channel currents was determined by measuring the current-voltage relationship in normal extracellular solution and also in extracellular solution containing caesium chloride (FIG. 6). […]
(In general: Patch clamp records ionic current or voltage across a cell membrane.)

As for `CCN(c1ccccc1)c1cc(=NC)n(C)c(C)n1.Cl` [ZD 7288], the “Effect on human HCN1 channel currents” value (ZD 7288 100 micromolar in extracellular solution) is on record as “reduced”. Take `[Cl-].[Cs+]` [caesium chloride]: the “Effect on human HCN1 channel currents” value (caesium chloride 5 mM in extracellular solution) is on record as “reduced”.
